We go through 2 molecules from the NIST ThermoML archive (doi:10.1021/je050525c).

For this data set the following is noted: Liquid, Ebulliometric method (Recirculating still).

Structures are written as SMILES. ± gives the expanded uncertainty stated by the source.

For the molecule `CC` [ethane], the “vapor or sublimation pressure” value (179.68 K) is reported as 77 ± 4 kPa, the “vapor or sublimation pressure” value (190.14 K) came out at 136 ± 4 kPa, the “vapor or sublimation pressure” value (200.68 K) came out at 223 ± 4 kPa and the “vapor or sublimation pressure” value (210.03 K) is listed as 336 ± 4 kPa.
The matching figures for `FC(F)(F)F` [tetrafluoromethane]: 679 ± 5 kPa, 1058 ± 6 kPa, 1575 ± 7 kPa and 2163 ± 9 kPa.

Broadly, the vapor or sublimation pressure is the pressure of vapour in equilibrium with the condensed phase.
